Target: T1, GtCPES (Guillardia theta, UniProt L1JFC7, M146A)
T1 sequence (L1JFC7 80-253 M146A): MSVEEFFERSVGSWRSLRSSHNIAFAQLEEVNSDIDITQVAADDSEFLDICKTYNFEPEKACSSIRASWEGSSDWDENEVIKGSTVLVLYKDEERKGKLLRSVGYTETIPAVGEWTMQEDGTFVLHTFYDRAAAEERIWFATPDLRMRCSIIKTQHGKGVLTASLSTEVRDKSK
Experiment: UV-Vis absorbance titration
Type: binding

`C/C=C1/C(=C/c2[nH]c(/C=C3N=C(/C=C4\NC(=O)C(CC)=C4C)C(C)=C\3CCC(=O)O)c(CCC(=O)O)c2C)NC(=O)[C@@H]1C` [3(E)-PCB] showed a Kd of 7 ± 0.4 µM.
